Among the data in PubChem BioAssay (NCI) are GI50 and TGI values, retold here.

Each structure is given as a SMILES string.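 Interpolation was linear, between the two tested concentrations surrounding the appropriate level; five concentrations were tested over 48 hours in 96-well plates. At the GI50, growth is halved. TGI denotes the concentration required for complete inhibition of growth.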

Some test systems named below: OVCAR-5 ovarian; EKVX NSCLC; A549 NSCLC; HOP-92 NSCLC; SF-539 CNS; SF-295 CNS; MDA-MB-231 breast; OVCAR-3 ovarian; UACC-257 melanoma; NCI-H226 lung.
Common to all, as to experiment: NCI anticancer screen, dose series, 48 h

Take `CN1CCN(Cc2ccc(NC(=O)c3cncc(C#Cc4cnc(N)c5ccncc45)c3)cc2C(F)(F)F)CC1`: the GI50 in the experiment on OVCAR-5 ovarian was 0.855 µM; in the experiment with EKVX NSCLC, 1.44 µM; in the experiment with A549 NSCLC it was 1.38 µM; in the experiment with HOP-92 NSCLC, 0.306 µM; with SF-539 CNS it was 0.484 µM; in the experiment with SF-295 CNS, 2.16 µM. Further, the GI50 in the experiment with MDA-MB-231 breast is 0.307 µM; in the experiment with OVCAR-3 ovarian it was 1.53 µM; in the experiment on UACC-257 melanoma, 0.573 µM. The TGI is above 50 µM in the experiment on OVCAR-5 ovarian; above 16.8 µM in the experiment with EKVX NSCLC; 6.92 µM in the experiment with A549 NSCLC; 1.93 µM with HOP-92 NSCLC; 2.03 µM with SF-539 CNS; above 50 µM in the experiment with SF-295 CNS. For the same compound, the TGI was found to be 1.26 µM with MDA-MB-231 breast, 7.51 µM in the experiment on OVCAR-3 ovarian and 4.68 µM in the experiment with UACC-257 melanoma.

In the case of `c1ccc2c(c1)c(NCCCCN1CCCCC1)cc1c3ccccc3c(NCCCCN3CCCCC3)cc21`, the GI50 is 20.9 µM in the experiment with NCI-H226 lung; 24.3 µM in the experiment on OVCAR-5 ovarian; 19.9 µM with EKVX NSCLC; 21.8 µM in the experiment with A549 NSCLC; 20.4 µM in the experiment with HOP-92 NSCLC; 16.5 µM with SF-539 CNS. Besides, the GI50 was 22.8 µM in the experiment with SF-295 CNS, 17.2 µM in the experiment with MDA-MB-231 breast, 19.5 µM in the experiment with OVCAR-3 ovarian and 2.67 µM in the experiment on UACC-257 melanoma. Also, the TGI was found to be 54.9 µM with NCI-H226 lung; 48.9 µM in the experiment on OVCAR-5 ovarian; 42 µM in the experiment with EKVX NSCLC; 56.6 µM with A549 NSCLC; 52.7 µM in the experiment with HOP-92 NSCLC; 37.5 µM with SF-539 CNS. Further, the TGI was 65.4 µM in the experiment with SF-295 CNS, 35.7 µM with MDA-MB-231 breast, 87.2 µM in the experiment on OVCAR-3 ovarian and 6.36 µM in the experiment on UACC-257 melanoma.

Take `O=[N+]([O-])c1cccc(-c2nc3sccn3c2-c2ccnc(NCCCNS(=O)(=O)c3cccc(F)c3)n2)c1`: the GI50 with NCI-H226 lung was 1.66 µM; in the experiment on OVCAR-5 ovarian, 7.83 µM; in the experiment with EKVX NSCLC, 2.77 µM; in the experiment on A549 NSCLC, 2.68 µM; in the experiment on HOP-92 NSCLC, 2.8 µM; with SF-539 CNS, 4.04 µM. Besides, the GI50 in the experiment with SF-295 CNS was 2.52 µM; in the experiment on MDA-MB-231 breast it was 6.41 µM; in the experiment with OVCAR-3 ovarian it was 2.53 µM; in the experiment on UACC-257 melanoma, 2.71 µM. Besides, the TGI in the experiment on NCI-H226 lung was 8.22 µM; in the experiment with OVCAR-5 ovarian it was above 100 µM; in the experiment with EKVX NSCLC, 52.7 µM; with A549 NSCLC, 24.3 µM; in the experiment with HOP-92 NSCLC, 30.3 µM; with SF-539 CNS, 20.8 µM. Moreover, the TGI in the experiment with SF-295 CNS was 7.79 µM; in the experiment with MDA-MB-231 breast, 27.2 µM; with OVCAR-3 ovarian, 11.9 µM; in the experiment with UACC-257 melanoma it was 8.27 µM.

For the compound `O=C1c2ccccc2-c2c1c1ccc([N+](=O)[O-])cc1c(=O)n2CCCBr`, the GI50 in the experiment on OVCAR-5 ovarian, with EKVX NSCLC, with A549 NSCLC, in the experiment on HOP-92 NSCLC, in the experiment with SF-539 CNS and in the experiment on MDA-MB-231 breast was above 100 µM each time. Further, the GI50 in the experiment with OVCAR-3 ovarian and in the experiment with UACC-257 melanoma was above 100 µM throughout. The TGI with OVCAR-5 ovarian, with EKVX NSCLC, in the experiment with A549 NSCLC, in the experiment with HOP-92 NSCLC, in the experiment with SF-539 CNS and in the experiment on MDA-MB-231 breast was above 100 µM in each case. Besides, the TGI in the experiment on OVCAR-3 ovarian and in the experiment on UACC-257 melanoma was above 100 µM throughout.

As for `N/C(=N\N=C\c1ccc(-c2ccccc2)cc1)N[N+](=O)[O-]`, the GI50 in the experiment with NCI-H226 lung was above 28.1 µM; with OVCAR-5 ovarian it was above 100 µM; in the experiment with A549 NSCLC, 2.75 µM; in the experiment with HOP-92 NSCLC, 2.18 µM; in the experiment on SF-539 CNS it was 2.12 µM; with SF-295 CNS, 2.61 µM. For the same compound, the GI50 in the experiment on MDA-MB-231 breast is above 68 µM; with OVCAR-3 ovarian, 1.67 µM; with UACC-257 melanoma, above 100 µM. The TGI with NCI-H226 lung, with OVCAR-5 ovarian, with A549 NSCLC, in the experiment on HOP-92 NSCLC, with SF-539 CNS and in the experiment with SF-295 CNS was above 100 µM throughout. Besides, the results for the TGI in the experiment on MDA-MB-231 breast, in the experiment on OVCAR-3 ovarian and in the experiment on UACC-257 melanoma were above 100 µM, 9.5 µM and above 100 µM, respectively.

Take `CC(CN1CCN(CCOCCO)CC1)CN1c2ccccc2Sc2ccc(Cl)cc21` (stereo not drawn): the GI50 in the experiment on NCI-H226 lung was 11.5 µM; in the experiment on OVCAR-5 ovarian, 2.6 µM; in the experiment with A549 NSCLC, 3.05 µM; in the experiment with HOP-92 NSCLC, 1.01 µM; in the experiment on SF-539 CNS, 2.52 µM; in the experiment on MDA-MB-231 breast, 1.86 µM. The GI50 is 3.62 µM in the experiment with OVCAR-3 ovarian and 1.49 µM in the experiment with UACC-257 melanoma. The TGI came to 36.8 µM with NCI-H226 lung; 7.27 µM with OVCAR-5 ovarian; 12.4 µM in the experiment with A549 NSCLC; 4.63 µM with HOP-92 NSCLC; 6.94 µM with SF-539 CNS; 4.79 µM in the experiment with MDA-MB-231 breast. The TGI in the experiment on OVCAR-3 ovarian was 12.7 µM; in the experiment on UACC-257 melanoma it was 3.11 µM.

Turning to `COc1ccc(C2CC(c3cc(OC)c(OC)c(OC)c3)=NN2C(C)=O)cc1OCC(=O)Nc1nc2ccc(C(F)(F)F)cc2s1` (stereo not drawn), the GI50 with OVCAR-5 ovarian is 28.2 µM; in the experiment with EKVX NSCLC, 4.1 µM; in the experiment on HOP-92 NSCLC, 1.7 µM; with SF-539 CNS, 1.75 µM; in the experiment on SF-295 CNS, 3.06 µM; with MDA-MB-231 breast it was 3.11 µM. Also, the TGI in the experiment with OVCAR-5 ovarian is above 100 µM; with EKVX NSCLC it was above 100 µM; with HOP-92 NSCLC, 4.02 µM; in the experiment with SF-539 CNS, 3.42 µM; in the experiment on SF-295 CNS, 11.5 µM; in the experiment on MDA-MB-231 breast it was 8.96 µM.

With `C=C1CC[C@@H]2[C@](C)(COC(C)=O)[C@@H](O)CC[C@@]2(C)[C@@H]1COc1ccc2ccc(=O)oc2c1`, the GI50 in the experiment on OVCAR-5 ovarian is above 100 µM; in the experiment on EKVX NSCLC, above 100 µM; in the experiment with A549 NSCLC, above 100 µM; in the experiment with HOP-92 NSCLC, above 100 µM; in the experiment on SF-539 CNS, 53.3 µM; in the experiment on SF-295 CNS it was 25.9 µM. Also, the GI50 in the experiment on MDA-MB-231 breast, in the experiment on OVCAR-3 ovarian and in the experiment with UACC-257 melanoma was above 100 µM throughout. The TGI with OVCAR-5 ovarian was above 100 µM; in the experiment on EKVX NSCLC it was above 100 µM; in the experiment with A549 NSCLC it was above 100 µM; in the experiment on HOP-92 NSCLC it was above 100 µM; with SF-539 CNS it was above 100 µM; in the experiment with SF-295 CNS, 79.1 µM. The TGI in the experiment on MDA-MB-231 breast, with OVCAR-3 ovarian and in the experiment with UACC-257 melanoma was above 100 µM each time.
